Results on 16 compounds are retold here after PubChem BioAssay (NCI).

Some test systems named below: MDA-N; MDA-MB-231 breast; OVCAR-5 ovarian; SK-MEL-28 melanoma; ACHN renal; UACC-257 melanoma; SNB-19 CNS; NCI-H226 lung; UACC-62 melanoma; HL-60(TB) leukemia.
What all share (assay): DTP human tumour cell line panel, 48 h

Several values for one entry are separate records, joined by “and”; a condition that tells them apart may be missing. Equal entries are not always repeated.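 Compound exposure: 48 hours, 5 concentrations, 96-well plates. Abbreviation: GI50, concentration required for 50% inhibition of growth. TGI marks complete inhibition of growth.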

As to `Nc1ccc2c(=O)cc(-c3ccc(Br)s3)[nH]c2n1`, the concentration for total growth inhibition (TGI) (commonly the concentration giving total growth inhibition) in the assay on MDA-N is 1.29 µM; in the assay with MDA-MB-231 breast, > 94.8 µM; in the assay with OVCAR-5 ovarian, > 100 µM; in the assay on SK-MEL-28 melanoma, > 100 µM; with ACHN renal, > 100 µM; in the assay on UACC-257 melanoma it was > 100 µM. The total growth inhibition concentration (TGI) with SNB-19 CNS is > 100 µM; with NCI-H226 lung, 9.11 µM; in the assay on UACC-62 melanoma it was > 100 µM.

For the compound `Cc1cn(C2CC(COCc3ccccc3)N(CCO[Si](C)(C)C(C)(C)C)O2)c(=O)[nH]c1=O` (stereo not given), the TGI in the assay on MDA-N came out at 27.9 µM; with MDA-MB-231 breast, 33.2 µM; with OVCAR-5 ovarian, 32 µM; in the assay with SK-MEL-28 melanoma, 34.7 µM; in the assay on ACHN renal, 28.9 µM; in the assay with SNB-19 CNS, 27.2 µM. The TGI with UACC-62 melanoma stood at 24.3 µM.

In the case of `O=C1C=CC(=O)c2c(O)c(N3CCOCC3)c(Cl)c(O)c21`, the TGI in the assay on MDA-N amounted to 0.396 µM; in the assay with MDA-MB-231 breast, 0.612 µM; in the assay with OVCAR-5 ovarian it was 1.76 µM; in the assay with SK-MEL-28 melanoma, 0.786 µM; in the assay on ACHN renal, 0.739 µM; with UACC-257 melanoma, 0.911 µM. The concentration for total growth inhibition (TGI) in the assay on SNB-19 CNS was 3.17 µM; in the assay with NCI-H226 lung, 3.34 µM; in the assay with UACC-62 melanoma, 1.41 µM.

`COc1cc(S(=O)(=O)Nc2ccc(-c3csc(N4C(=O)C(Cl)C4c4ccccc4O)n3)cc2)ccc1Cl` (stereo not given): the total growth inhibition concentration (TGI) in the assay with MDA-N was > 100 µM; with OVCAR-5 ovarian it was > 100 µM; in the assay with SK-MEL-28 melanoma, > 100 µM; in the assay with ACHN renal, > 100 µM; in the assay on UACC-257 melanoma it was 88.6 µM; with SNB-19 CNS, > 100 µM. The results for the TGI in the assay on HL-60(TB) leukemia, with NCI-H226 lung and in the assay with UACC-62 melanoma were 49.7 µM, > 100 µM and 59.1 µM, respectively.

`O=C1N2CCC[C@H]2CS1(=O)=O`: the TGI in the assay with MDA-MB-231 breast is 29.6 µM; with OVCAR-5 ovarian, 93.7 µM; in the assay with SK-MEL-28 melanoma, 41.2 µM; in the assay with ACHN renal, 29.7 µM; in the assay with UACC-257 melanoma it was 37.4 µM; in the assay with SNB-19 CNS it was > 100 µM. The TGI turned out to be 39.3 µM with HL-60(TB) leukemia, 72.2 µM in the assay with NCI-H226 lung and 30 µM in the assay on UACC-62 melanoma.

For the compound `N/N=C(/N)SCCCCCCCCCCS/C(N)=N/N`, the TGI is 85.2 µM in the assay on MDA-MB-231 breast; > 100 µM in the assay on OVCAR-5 ovarian; > 100 µM in the assay on SK-MEL-28 melanoma; 67.4 µM in the assay with ACHN renal; > 100 µM in the assay with UACC-257 melanoma; > 100 µM with SNB-19 CNS. For the same compound, the results for the total growth inhibition concentration (TGI) with HL-60(TB) leukemia, in the assay with NCI-H226 lung and with UACC-62 melanoma were 39.4 µM, 83.1 µM and 47.1 µM, respectively.

With `Cc1ccc(N=C/C=C(\Nc2ccc(C)cc2)c2ccc3ccccc3c2)cc1`, the TGI in the assay with MDA-MB-231 breast was found to be 2.12 µM; in the assay on OVCAR-5 ovarian it was 6.24 µM; with SK-MEL-28 melanoma, 11.2 µM; in the assay on ACHN renal, 7.77 µM; with UACC-257 melanoma, 16.6 µM; in the assay with SNB-19 CNS, 15.4 µM. In addition, the TGI came out at 2.02 µM in the assay on HL-60(TB) leukemia, 4.48 µM in the assay on NCI-H226 lung and 1.3 µM in the assay on UACC-62 melanoma.

Regarding `CC(CCc1nc2ccccc2s1)(c1ccc(O)cc1)c1ccc(O)cc1`, the TGI with MDA-N was found to be 31.1 µM; in the assay on MDA-MB-231 breast it was 32 µM; with OVCAR-5 ovarian it was 33.1 µM; with SK-MEL-28 melanoma, 33.7 µM; in the assay with ACHN renal, 33.2 µM; with UACC-257 melanoma, 28.7 µM. Further, the TGI with SNB-19 CNS worked out at 34.8 µM; in the assay on NCI-H226 lung, 41.1 µM; in the assay on UACC-62 melanoma, 29.4 µM.

With `Cc1ccc(N2C(=O)C3CSCN3C2=O)cc1` (stereo not given), the TGI in the assay on OVCAR-5 ovarian was > 100 µM; in the assay on SK-MEL-28 melanoma it was > 100 µM and 31.2 µM; with UACC-257 melanoma, > 100 µM; with SNB-19 CNS, > 100 µM; in the assay with HL-60(TB) leukemia it was > 100 µM; in the assay with NCI-H226 lung, > 100 µM. For the same compound, the total growth inhibition concentration (TGI) with UACC-62 melanoma is > 100 µM. Moreover, the GI50 – broadly, the concentration that inhibits growth by half – in the assay with SK-MEL-28 melanoma is > 100 µM.

For `Cc1c(OCc2cccc3ccccc23)ccc2c(=O)cc(SCCN3CCOCC3)oc12`, the total growth inhibition concentration (TGI) in the assay on MDA-MB-231 breast, in the assay with OVCAR-5 ovarian, with SK-MEL-28 melanoma, with ACHN renal, in the assay with UACC-257 melanoma and in the assay with SNB-19 CNS was > 100 µM in each case. For the same compound, the TGI in the assay on HL-60(TB) leukemia, in the assay on NCI-H226 lung and in the assay with UACC-62 melanoma was > 100 µM each time.

Regarding `c1ccc2c(Nc3ncco3)cccc2c1`, the total growth inhibition concentration (TGI) in the assay on MDA-N, in the assay on MDA-MB-231 breast, with OVCAR-5 ovarian, with SK-MEL-28 melanoma, in the assay with ACHN renal and with UACC-257 melanoma was > 10 µM each time. Moreover, the TGI in the assay on SNB-19 CNS, in the assay on NCI-H226 lung and with UACC-62 melanoma was > 10 µM in each case.

On to `C/C(=C\Cc1ccc(F)cc1)CCCCCC/C(C)=C/Cc1ccc(F)cc1`, for which the TGI in the assay with MDA-N turned out to be 34.2 µM; in the assay on MDA-MB-231 breast it was 37.9 µM; in the assay with OVCAR-5 ovarian, 37.9 µM; with ACHN renal, 24.8 µM; in the assay on UACC-257 melanoma, 33.3 µM; in the assay on SNB-19 CNS it was 75.9 µM. In addition, the concentration for total growth inhibition (TGI) in the assay with UACC-62 melanoma worked out at 33 µM.

For `O=[N+]([O-])c1ccc(N2N=C(c3c(O)ccc4ccccc34)CC2c2ccc(Cl)cc2)c([N+](=O)[O-])c1` (stereo not given), the concentration for total growth inhibition (TGI) in the assay on MDA-N is > 100 µM; in the assay on MDA-MB-231 breast it was 56.2 µM; in the assay on OVCAR-5 ovarian it was > 100 µM; with SK-MEL-28 melanoma, > 100 µM; in the assay with ACHN renal it was > 100 µM; in the assay on UACC-257 melanoma it was > 100 µM. The total growth inhibition concentration (TGI) in the assay on NCI-H226 lung is > 100 µM; in the assay with UACC-62 melanoma it was 60.4 µM.

Take `COC(=O)/C=C\n1nc(Br)c(=O)[nH]c1=O`: the TGI in the assay with MDA-N, in the assay with MDA-MB-231 breast, with OVCAR-5 ovarian, with SK-MEL-28 melanoma, with ACHN renal and in the assay with UACC-257 melanoma was > 100 µM in each case. Further, the total growth inhibition concentration (TGI) in the assay with SNB-19 CNS and in the assay with HL-60(TB) leukemia was > 100 µM each time.

As to `COc1c(C)c(C/C=C(\C)CCCC(C)CCCC(C)CCCC(C)C)c(OC)c2ccccc12` (stereo not given), the TGI in the assay on MDA-N, in the assay with MDA-MB-231 breast, with OVCAR-5 ovarian, in the assay on ACHN renal, in the assay with UACC-257 melanoma and with SNB-19 CNS was > 100 µM each time. The total growth inhibition concentration (TGI) with UACC-62 melanoma is > 100 µM.

`Cc1cc(N2CCCCC2)nc2ccc(Cc3ccc4nc(N5CCCCC5)cc(C)c4c3)cc12`: the TGI in the assay with MDA-N, with MDA-MB-231 breast, in the assay with OVCAR-5 ovarian, with SK-MEL-28 melanoma, with ACHN renal and with UACC-257 melanoma was > 100 µM each time. For the same compound, the TGI in the assay with SNB-19 CNS, in the assay on NCI-H226 lung and in the assay with UACC-62 melanoma was > 100 µM each time.
